# From patent US6562359B2, “Pest repellent” (Sumitomo Chemical Company, Ltd., priority 1997, dated 2003)
# Assays:
# Type in all cases: in vivo
# [1] = test system: mosquitoes (Aedes aegypti); assay: Test Example 1: mosquito entrance inhibition in treated cup; conditions: Aedes aegypti females; 0.3 mg/cup on filter paper; counted 10 minutes after setting; disposal warmer lure
# Description: A lower side part of a plastic cup (base diameter: 10 cm; top opening diameter: 12 cm; height: 7 cm; capacity: about 650 ml) was cut out to form a 2 cm square entrance of mosquitoes. At the center of said cup was placed a twofold disposal warmer (Kiribai New Hand Warmer, 24-hour type, 13.5×10 cm) as a lure for mosquitoes. A 9 cm-diameter filter paper was treated with a 1 ml solution of the test substance diluted with acetone to a predetermined concentration, and after acetone was air dried, said filter paper was attached to the inside of the cover of said cup with a double-side adhesive tape. This cover was fitted on said cup, allowing the test substance to volatilize and diffuse in the cup for one minute.
# In a nylon gauze-made cage (50 cm×50 cm×50 cm) holding about 600 mosquitoes (Aedes aegypti) one to 2 weeks old after emergence (sex ratio=ca. 1:1), 2 said cups were placed cater-cornered across the cage, each of said cups being positioned about 10 cm away from the cage corner, to lure the mosquitoes. […] 10 minutes after setting the cups at said positions in the cage, each cup was taken out of the cage and the number of the female insects attracted into the cup was counted. Based on the obtained result, the insect entrance inhibition rate was calculated from the following equation: […]
# Tineola bisselliella = assay: Test Example 6: entrance inhibition in treated carton with wool muslin; conditions: Tineola bisselliella female adults; 1 mg/cup (carton with wool muslin)
# Description: Insect entrance inhibition rate (%)={(number of insects attracted into the non-treated section−number of insects attracted into the treated section)/number of insects attracted into the non-treated section}×100 A lower end of a 4.5 cm×4.5 cm×4.5 cm carton was cut out to form a 0.5 cm×4.5 cm entrance of insects. A filter paper (2 cm×2 cm) impregnated with an acetone-diluted solution of the test substance was placed in the carton, and a 1 cm×1 cm piece of wool muslin was laid on said filter paper. This carton was set at a corner of a nylon gauze-made cage (20 cm×20 cm×30 cm), and a carton containing a filter paper not treated with hyssop oil and having wool muslin laid thereon was set at the diagonally opposite corner of the cage. About 60 female adults of Tineola bisselliella one to 2 days old after emergence were released in the cage, and the number of the insects which entered the cartons was counted. The test was conducted on a two-replication system.
# [2] = test system: houseflies (Musca domestica); assay: Test Example 3: housefly entrance inhibition in treated cup; conditions: 100 mg/cup, powder milk and sugar lure
# Meqaselia spiracularis = assay: Test Example 4: entrance inhibition in treated cup, maggot rearing medium lure; conditions: 100 mg/cup, 30 minutes after setting
# Clogmia albipunctata = assay: Test Example 5: entrance inhibition in treated cup, in the dark; conditions: 30 mg/cup, 2 hours after setting
# [3] = test system: mosquitoes (Culex pipiens pallens); assay: Test Example 2: mosquito entrance inhibition in treated cup, overnight luring; conditions: 3.0 mg/cup, tacky trap in cup
smiles,measurement,setting,value
"CCN(CC)C(=O)c1cccc(C)c1 [DEET, N,N-diethyl-m-toluamide]",Entrance inhibition rate,[1],38%
same,Entrance inhibition rate,Tineola bisselliella,9.5%
same,Entrance inhibition rate,[2],34%
same,Entrance inhibition rate,Meqaselia spiracularis,34%
same,Entrance inhibition rate,Clogmia albipunctata,50%
same,Entrance inhibition rate,[3],−10%
